Test results reported in patent US12661331B2 (priority 2019, dated 2026).

System: PUUV
Design: species or system AG129 mice
Details: mouse, in vivo

For `O=C(O)c1ccc(F)c(F)c1Nc1ccc(I)cc1Cl` [ATR-002, 2-(2-chloro-4-iodophenylamino)-N-3,4-difluoro benzoic acid], the “virus in the kidney” value was “no virus could be detected”, the “virus in the lung” value was “no virus could be detected” and the “virus titer reduction compared to animals treated with solvent only” value (75 mg/kg/day) was “complete virus titer reduction”.
